The nature of data set [1]: Concentration of test compound in eye tissue and blood after transocular administration of ophthalmic solution (EIA). The format is in vivo, JW (clean) strain female rabbits. The settings on record: topical or ocular, read-out: Mean concentration in tissue ± S.E. The method, then:
The resultant preparation was filled in an instillator.
(§1) c The experiment was carried out using JW (clean) strain female rabbits (body weight: 2.3 to 2.6 kg), each test group containing three rabbits. In this experiment, the rabbits were allowed to feed themselves and drink water freely both before and after each administration.
In case of transocular administration of ophthalmic solution, the rabbits were fixed on the cangue fixer and applied to each eye with one drop (about 0.05 ml) of the above ophthalmic solution using an instillator. The administration was repeated five times at 5-minute intervals. After the final administration, the rabbits were brought back to their cage. In these administrations, total dosage was 1 mg/rabbit. At 30 minutes after the final administration, blood was collected from the ear vein of the rabbits. Immediately, the rabbits were anesthetized by injection of "Nembutal" (Trademark) into the ear vein to bleed to death by cutting off their head and then the eyeballs were taken out therefrom.
(§2) The eyeballs taken out were washed with physiological saline solution under ice-cooling, and subsequently divided into various parts (i.e. cornea, aqueous humor in anterior chamber of eye, iris, lens, vitreum, retinochoroid and sclera). After measuring the weight of each part, phosphate buffer solution (pH 7.4) was added thereto and then the parts were homogenized using a glass-made "Potter-type homogenizer" (Trademark).
(§3) The determination of a concentration of the test compound in each sample was carried out by the two-step Enzyme-linked immunosorbent assay (EIA) using purified polyclonal antibody against the test compound.

Data set [2] in a line: Concentration of test compound in eye tissue and blood after continuous subcutaneous administration by implanted mini-pump (EIA). The format is in vivo, JW (clean) strain female rabbits. The settings on record: sc, 2.5 mg/animal/day, read-out: Mean concentration in tissue ± S.E. On the procedure: as §1
On the other hand, in case of continuous subcutaneous administration, after the rabbits were anesthetized by injection of "Nembutal" (Trademark, 0.5 to 0.6 ml/kg i.v.), they were clipped their back side hair and then were incised their clipped parts about 3 cm long with a surgical knife. […] Subsequently, the incised parts of the rabbits were sutured with silk thread, and then the rabbits were brought back to their cage. In this case, total dosage was 2.5 mg/rabbit/day. The day when the mini-pump was implanted was defined as "Day 0". On Day 5, the rabbits were anesthetized by injection of "Nembutal" (Trademark) into the ear vein to bleed to death, and then the eyeballs were taken out therefrom. In this experiment, blood was collected for measuring a concentration of the test compound in blood on each Day 1, 4 and 5.
as §2, §3

Data set [3] deals with intraocular vascularization. Put plainly: Suppression of induced intraocular vascularization (cupric chloride pellet and aminoadipic acid) by eye drops, histological observation. It is filed as in vivo, rabbits (Dutch). The settings on record: 2 mg/ml in isotonic phosphate buffer solution (pH 8), eye drops twice a day for 12 days; both eyes of five rabbits. The method, then: Both eyes of five rabbits (Dutch) were used for this experiment. Into the vitreum of the rabbits, 0.2 ml of sterilized air was injected. […] At the same time as transplantation, 1 mg of aminoadipic acid dissolved in 0.2 ml of physiological saline solution was injected into the vitreum, by which vascularization in the eyes (i.e. in the vitreum) was induced. Twenty-four hours later, isotonic phosphate buffer solution (pH 8, 2 mg/ml) which contained the same test compound used in Example 1 was administered drop by drop to each rabbit. The same administration was repeated twice a day for consecutive 12 days. After the final administration on the 12th day, the eyeballs were taken out therefrom and observed histologically to find whether the vascularization was suppressed or not.

Read-outs that look alike come from different tables or passages of the source.

Take `CNC(=O)OC1CCC2(CO2)C(C2(C)OC2CC=C(C)C)C1OC` (stereo not drawn) [test compound, 6-Methylcarbamoyloxy-5-methoxy-4-[2-methyl-3-(3-methyl-2-butenyl)oxiranyl]-1-oxaspiro[2.5]octane]: the concentration at 0.5 h in data set [1] (Aqueous humor in anterior chamber of eye, 30 min. after transocular administration of ophthalmic solution (total 1 mg/rabbit), n = 6) is 141 ± 59.7 ng/g; in data set [1] (Cornea, 30 min. after transocular administration of ophthalmic solution (2 mg/ml, total 1 mg/rabbit), n = 6) it was 1.56 ± 0.73 ng/g; in data set [1] (Lens, 30 min. after transocular administration of ophthalmic solution (total 1 mg/rabbit), n = 6), 12.4 ± 2.11 ng/g; in data set [1] (Retinochoroid, 30 min. after transocular administration of ophthalmic solution (total 1 mg/rabbit), n = 6), 40.2 ± 9.4 ng/g; in data set [1] (Sclera, 30 min. after transocular administration of ophthalmic solution (total 1 mg/rabbit), n = 6), 0.78 ± 0.78 ng/g; in data set [1] (Vitreum, 30 min. after transocular administration of ophthalmic solution (total 1 mg/rabbit), n = 6), 9.99 ± 2.37 ng/g. In addition, in data set [1] (Whole blood (n = 3), 30 min. after transocular administration of ophthalmic solution (total 1 mg/rabbit)), the concentration at 0.5 h was found to be 19.6 ± 4.22 ng/g. For the same compound, the concentration at 120 h worked out at 0.79 ± 0.62 ng/g in data set [2] (Aqueous humor in anterior chamber of eye, Day 5 of continuous subcutaneous administration (2.5 mg/rabbit/day), n = 6); 2.87 ± 0.52 ng/g in data set [2] (Cornea, Day 5 of continuous subcutaneous administration (2.5 mg/rabbit/day) by mini-pump, n = 6); 0.2 ± 0.08 ng/g in data set [2] (Lens, Day 5 of continuous subcutaneous administration (2.5 mg/rabbit/day), n = 6); 0.6 ± 0.26 ng/g in data set [2] (Retinochoroid, Day 5 of continuous subcutaneous administration (2.5 mg/rabbit/day), n = 6); 1.06 ± 0.27 ng/g in data set [2] (Sclera, Day 5 of continuous subcutaneous administration (2.5 mg/rabbit/day), n = 6); 1.19 ± 0.23 ng/g in data set [2] (Vitreum, Day 5 of continuous subcutaneous administration (2.5 mg/rabbit/day), n = 6). Moreover, the concentration at 120 h in data set [2] (Whole blood, Day 5 (n=3), continuous subcutaneous administration (2.5 mg/rabbit/day)) was determined as 22.5 ± 4.12 ng/g. In addition, in data set [2] (Whole blood, Day 1 (n=3), continuous subcutaneous administration (2.5 mg/rabbit/day)), the concentration at 24 h was found to be 30.6 ± 6.13 ng/g. The concentration at 96 h in data set [2] (Whole blood, Day 4 (n=3), continuous subcutaneous administration (2.5 mg/rabbit/day)) worked out at 13.7 ± 9.74 ng/g. Moreover, the “eyeballs in which intraocular vascularization was suppressed thoroughly” value in data set [3] is given as 42.9%. The “eyeballs in which the vascularization was suppressed partially or thoroughly” value in data set [3] is on record as 85.7%.

These data come from EP0608419A1, “TRANSOCULAR PREPARATION” (FUJISAWA PHARMACEUTICAL CO., LTD., priority 1991, dated 1993).
